Data set [1] deals with MOLM-13. The experiment in a line: Induction of apoptosis in human MOLM-13 cells at 50 nM incubated for 24 hrs by Annexin V-FITC/PI staining based flow cytometry. Type of data set: functional, cell-based. A general note: Flow cytometry measures light scatter and fluorescence of single cells or particles in a stream.
For data set [2], the system named is MV4-11. The experiment in a line: Induction of apoptosis in human MV4-11 cells at 50 nM incubated for 24 hrs by Annexin V-FITC/PI staining based flow cytometry. The data set is classed as functional, cell-based.
In data set [3] the test system is Protein cereblon/Receptor-type tyrosine-protein kinase FLT3 (Homo sapiens), P36888+Q96SW2 [UNDEFINED MUTATION]. Description: PROTAC activity at CRBN/FLT3-ITD mutant in human MOLM-13 cells assessed as protein degradation at 100 nM incubated for 8 hrs by Western blot analysis. Type of data set: cell-based.
Data set [4] has the same test system. The experiment in a line: PROTAC activity at CRBN/FLT3-ITD mutant in human MV4-11 cells assessed as protein degradation at 100 nM incubated for 8 hrs by Western blot analysis. Type of data set: cell-based.
For data set [5], the system named is MV4-11. The experiment in a line: Antiproliferative activity against human MV4-11 cells expressing FLT3-ITD mutant incubated for 48 hrs by CCK8 assay. Type of data set: functional, cell-based. Conditions: MV4-11, 48 h. For orientation: Formazan colour is commonly taken as a measure of viable cells.
Data set [6] deals with MOLM-13. The experiment in a line: Antiproliferative activity against Quizartinib-resistant human MOLM-13 cells incubated for 48 hrs by CCK8 assay. Type of data set: functional, cell-based. Conditions: MOLM-13, 48 h.
Data set [7] concerns MOLM-13. The experiment in a line: Antiproliferative activity against Sunitinib-resistant human MOLM-13 cells incubated for 48 hrs by CCK8 assay. Type of data set: functional, cell-based. Conditions: MOLM-13, 48 h.
The test system of data set [8] is MOLM-13. The experiment in a line: Antiproliferative activity against human MOLM-13 cells incubated for 48 hrs by CCK8 assay. The data set is classed as functional, cell-based. The note with it: MOLM-13, 48 h.
Data set [9] in a line: Stability in mouse liver microsomes assessed as hepatic clearance. Type of data set: ADME, Microsome. A general note: Liver microsomes are a subcellular fraction often used to study metabolism.
A short description of data set [10]: Stability in human liver microsomes assessed as intrinsic clearance. The data set is classed as ADME, Microsome. The note with it: read-out: CLH.
Data set [11] is described as follows: Stability in monkey liver microsomes assessed as half life. The data set is classed as ADME, Microsome. The note with it: chlorocebus aethiops.
The nature of data set [12]: Stability in dog liver microsomes assessed as half life. Type of data set: ADME, Canis lupus familiaris, Microsome.
A short description of data set [13]: Stability in rat liver microsomes assessed as intrinsic clearance. The data set is classed as ADME, Microsome. Conditions: read-out: CLH.
The nature of data set [14]: Stability in dog liver microsomes assessed as hepatic clearance. Type of data set: ADME, Canis lupus familiaris, Microsome.
Data set [15] in a line: Stability in human liver microsomes assessed as hepatic clearance. Type of data set: ADME, Microsome.
Data set [16] can be described thus: Stability in monkey liver microsomes assessed as intrinsic clearance. The note with it: chlorocebus aethiops, read-out: CLH. The data set is classed as ADME, Microsome.
A short description of data set [17]: Antiproliferative activity against human HL-60 cells expressing wild-type FLT3 incubated for 48 hrs by CCK8 assay. The data set is classed as toxicity, cell-based.
Data set [18] in a line: Antiproliferative activity against human THP-1 cells expressing wild-type FLT3 incubated for 48 hrs by CCK8 assay. Type of data set: toxicity, cell-based.
A short description of data set [19]: Stability in human liver microsomes assessed as half life. The data set is classed as ADME, Microsome.
Data set [20] can be described thus: Stability in dog liver microsomes assessed as intrinsic clearance. Type of data set: ADME, Canis lupus familiaris, Microsome. The note with it: read-out: CLH.
The nature of data set [21]: Stability in mouse liver microsomes assessed as half life. Type of data set: ADME, Microsome.
A short description of data set [22]: Antiproliferative activity against human U-937 cells expressing wild-type FLT3 incubated for 48 hrs by CCK8 assay. Type of data set: toxicity, cell-based.
The nature of data set [23]: Stability in monkey liver microsomes assessed as hepatic clearance. The data set is classed as ADME, Microsome. Conditions: chlorocebus aethiops.
Data set [24] in a line: Stability in rat liver microsomes assessed as half life. The data set is classed as ADME, Microsome.
Data set [25] concerns MV4-11. The experiment in a line: Antitumor activity against human MV4-11 cells xenografted in nu/nu mouse at 1.6 mg/kg, po administered daily for 2 weeks relative to control. Type of data set: functional. Conditions: MV4-11, 336 h, read-out: TGI.
Data set [26] can be described thus: Stability in rat liver microsomes assessed as hepatic clearance. Type of data set: ADME, Microsome.
Data set [27] in a line: Stability in mouse liver microsomes assessed as intrinsic clearance. Conditions: read-out: CLH. Type of data set: ADME, Microsome.

Calls of active or inactive are those of the source. No cut-off for these calls is given here.

Protein cereblon/Receptor-type tyrosine-protein kinase FLT3 (Homo sapiens), P36888+Q96SW2 [UNDEFINED MUTATION], sequence (P36888 whole entry, looked up, change not shown): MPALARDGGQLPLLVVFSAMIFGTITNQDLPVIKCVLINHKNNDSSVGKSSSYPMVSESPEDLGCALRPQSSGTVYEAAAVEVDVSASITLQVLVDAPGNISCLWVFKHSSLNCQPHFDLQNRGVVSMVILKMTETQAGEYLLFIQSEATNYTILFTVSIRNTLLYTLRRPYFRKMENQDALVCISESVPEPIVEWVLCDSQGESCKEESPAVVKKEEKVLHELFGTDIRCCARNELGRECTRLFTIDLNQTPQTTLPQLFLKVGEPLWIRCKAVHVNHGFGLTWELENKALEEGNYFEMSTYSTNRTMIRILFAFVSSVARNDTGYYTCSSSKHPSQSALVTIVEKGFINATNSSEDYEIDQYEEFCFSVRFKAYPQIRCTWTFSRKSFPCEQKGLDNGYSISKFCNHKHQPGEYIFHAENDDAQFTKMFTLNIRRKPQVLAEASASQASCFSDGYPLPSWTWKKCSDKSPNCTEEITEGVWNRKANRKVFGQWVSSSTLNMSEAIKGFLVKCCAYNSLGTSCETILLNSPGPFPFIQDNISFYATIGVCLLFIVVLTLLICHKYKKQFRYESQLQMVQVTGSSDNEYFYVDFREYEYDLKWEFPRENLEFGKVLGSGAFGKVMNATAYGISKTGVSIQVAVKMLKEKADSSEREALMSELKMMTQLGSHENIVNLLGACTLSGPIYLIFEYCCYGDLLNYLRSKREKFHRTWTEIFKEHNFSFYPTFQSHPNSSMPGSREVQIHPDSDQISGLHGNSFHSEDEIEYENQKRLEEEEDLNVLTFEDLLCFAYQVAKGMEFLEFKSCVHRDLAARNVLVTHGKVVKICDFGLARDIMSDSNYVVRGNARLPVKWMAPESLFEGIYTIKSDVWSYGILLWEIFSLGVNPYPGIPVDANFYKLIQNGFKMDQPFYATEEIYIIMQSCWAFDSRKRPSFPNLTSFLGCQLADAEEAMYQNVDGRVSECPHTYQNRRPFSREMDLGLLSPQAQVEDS
Protein cereblon/Receptor-type tyrosine-protein kinase FLT3 (Homo sapiens), P36888+Q96SW2 [UNDEFINED MUTATION], sequence (Q96SW2 whole entry, looked up, change not shown): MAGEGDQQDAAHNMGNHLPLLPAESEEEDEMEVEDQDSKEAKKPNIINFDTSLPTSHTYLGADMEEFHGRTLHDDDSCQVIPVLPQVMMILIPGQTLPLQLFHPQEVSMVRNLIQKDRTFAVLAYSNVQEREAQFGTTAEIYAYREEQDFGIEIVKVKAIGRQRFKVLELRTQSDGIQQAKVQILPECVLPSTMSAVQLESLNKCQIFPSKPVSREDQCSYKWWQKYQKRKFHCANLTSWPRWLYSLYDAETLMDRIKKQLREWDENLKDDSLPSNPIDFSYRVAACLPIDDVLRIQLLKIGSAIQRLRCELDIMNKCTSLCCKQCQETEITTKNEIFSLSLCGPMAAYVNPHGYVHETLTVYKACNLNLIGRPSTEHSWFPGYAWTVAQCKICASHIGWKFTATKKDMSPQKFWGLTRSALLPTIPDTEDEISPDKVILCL

`Cc1c(NC(=O)CN2CCN(CC3CCN(c4ccc5c(c4)C(=O)N(C4CCC(=O)N(C)C4=O)C5=O)CC3)CC2)c[nH]c1/C=C1\C(=O)Nc2ccc(F)cc21` (stereo not given): the outcome in data set [1], in data set [2], in [3] and in [4] was inactive.
On to `CC(C)(C)c1cc(NC(=O)Nc2ccc(-c3cn4c(n3)sc3cc(OCCN5CCOCC5)ccc34)cc2)no1` [QUIZARTINIB], for which the IC50 came to 33.7 nM in data set [5], 40.9 µM in [6], 1230 nM in data set [7] and 39.4 nM in [8].
Consider `Cc1c(NC(=O)CCN2CCCC2)c[nH]c1/C=C1\C(=O)Nc2ccc(F)cc21`, for which the CLhep predicted in data set [9] was 51.4 mL/min/kg; in data set [14] it was 12.9 mL/min/kg; in data set [15], 5.93 mL/min/kg; in data set [23] it was 18.4 mL/min/kg; in [26] it was 27.7 mL/min/kg. Moreover, the CLint scaled in data set [10] amounted to 8.32 mL/min/kg; in data set [13] it was 41 mL/min/kg; in data set [16], 31.7 mL/min/kg; in data set [20] it was 22.1 mL/min/kg; in data set [27], 120 mL/min/kg. Further, the half-life was 59 min in data set [11]; 90.2 min in data set [12]; 193 min in data set [19]; 45.5 min in [21]; 60.8 min in data set [24]. The IC50 in data set [5] amounted to 24 nM; in data set [6] it was 1.52 µM; in data set [7], 811 nM. Moreover, the IC50 at 48 h is 6.45 µM in data set [17], 1500 nM in data set [18] and 2780 nM in [22]. Also, the inhibition in vivo at 1.6 mg/kg in data set [25] is 39.8%.

As usually defined, the IC50 is the concentration that inhibits the measured activity by half. Broadly, the half-life is how long it takes for the measured level to halve.

Values taken from ChEMBL document CHEMBL5543162, “Discovery of a Novel Orally Bioavailable FLT3-PROTAC Degrader for Efficient Treatment of Acute Myeloid Leukemia and Overcoming Resistance of FLT3 Inhibitors” (J Med Chem, 2024).
